Measured values published in patent US10597388B2, “Pyridazinone herbicides” (FMC CORPORATION, priority 2014, dated 2020).

Legend:
Test in all cases: Test E greenhouse herbicide test, pre- and postemergence
Assay type in all cases: in vivo
soybean (Glycine max) = tested on: soybean (Glycine max)
Description: (§1) Seeds of plant species selected from corn (Zea mays), soybean (Glycine max), velvetleaf (Abutilon theophrasti), lambsquarters (Chenopodium album), wild poinsettia (Euphorbia heterophylla), pigweed, palmer (palmer pigweed, Amaranthus palmeri), waterhemp (common waterhemp, Amaranthus rudis), surinam grass (Brachiaria decumbens), crabgrass, large (large crabgrass, Digitaria sanguinalis), crabgrass, Brazilian (Brazilian crabgrass, Digitaria horizontalis), panicum, fall (fall panicum, Panicum dichotomiflorum), foxtail, giant (giant foxtail, Setaria faberii), foxtail, green (green foxtail, Setaria viridis), goosegrass (Eleusine indica), johnsongrass (Sorghum halepense), ragweed (common ragweed, Ambrosia elatior), barnyardgrass (Echinochloa crus-galli), sandbur (southem sandbur, Cenchrus echinatus), arrowleaf sida (Sida rhombifolia), Italian ryegrass (Lolium multiflorum), dayflower (Virginia (VA) dayflower, Commelina virginica), field bindweed (Convolvulus arvensis), momingglory (Ipomoea coccinea), nightshade (eastern black nightshade, Solanum ptycanthum), kochia (Kochia scoparia), nutsedge, yellow (yellow nutsedge, Cyperus esculentus), horseweed (Conyza canadensis), and beggarticks (hairy beggarticks, Bidens pilosa), were planted into a silt loam soil and treated preemergence with test chemicals formulated in a non-phytotoxic solvent mixture which included a surfactant.
(§2) At the same time, plants from these crop and weed species and also waterhemp_RES1, (ALS & Triazine resistant common waterhemp, Amaranthus rudis), and waterhemp_RES2, (ALS & HPPD resistant common waterhemp, Amaranthus rudis) were planted in pots containing Redi-Earth® planting medium (Scotts Company, 14111 Scottslawn Road, Marysville, Ohio 43041) comprising spaghnum peat moss, vermiculite, wetting agent and starter nutrients were treated with postemergence applications of test chemicals formulated in the same manner. Plants ranged in height from 2 to 18 cm for postemergence treatments (1- to 4-leaf stage). Treated plants and controls were maintained in a greenhouse for 14 to 21 d, after which time all species were compared to controls and visually evaluated. Plant response ratings, summarized in Table E, are based on a scale of 0 to 100 where 0 is no effect and 100 is complete control. A dash (-) response means no test result.

[1] = tested on: arrowleaf sida (Sida rhombifolia)
Description: as §1, §2

[2] = tested on: momingglory (Ipomoea coccinea); settings: Preemergence
Description: as §1, §2

[3] = tested on: dayflower (Virginia (VA) dayflower, Commelina virginica)
Description: as §1, §2

[4] = tested on: nutsedge, yellow (yellow nutsedge, Cyperus esculentus); settings: Preemergence
Description: as §1, §2

[5] = tested on: barnyardgrass (Echinochloa crus-galli)
Description: as §1, §2

[6] = tested on: panicum, fall (fall panicum, Panicum dichotomiflorum)
Description: as §1, §2

[7] = tested on: sandbur (southem sandbur, Cenchrus echinatus)
Description: as §1, §2

[8] = tested on: foxtail, green (green foxtail, Setaria viridis); settings: Preemergence
Description: as §1, §2

[9] = tested on: crabgrass, Brazilian (Brazilian crabgrass, Digitaria horizontalis)
Description: as §1, §2

[10] = tested on: horseweed (Conyza canadensis)
Description: as §1, §2

[11] = tested on: Italian ryegrass (Lolium multiflorum)
Description: as §1, §2

[12] = tested on: ragweed (common ragweed, Ambrosia elatior)
Description: as §1, §2

corn (Zea mays) = tested on: corn (Zea mays)
Description: as §1, §2

[13] = tested on: goosegrass (Eleusine indica); settings: Preemergence
Description: as §1, §2

[14] = 62 g ai/ha, Postemergence, scale 0 to 100 (0 no effect, 100 complete control)
[15] = 62 g ai/ha, Preemergence, scale 0 to 100 (0 no effect, 100 complete control)
[16] = 125 g ai/ha, Postemergence, scale 0 to 100 (0 no effect, 100 complete control)
[17] = 125 g ai/ha, Preemergence, scale 0 to 100 (0 no effect, 100 complete control)
[18] = 250 g ai/ha, Postemergence, scale 0 to 100 (0 no effect, 100 complete control)
[19] = Postemergence, 31 g ai/ha, visual, scale 0 no effect to 100 complete control
[20] = Preemergence, 31 g ai/ha, scale 0 to 100, 0 no effect, 100 complete control
[21] = Preemergence, 250 g ai/ha, visual, scale 0 no effect to 100 complete control
[22] = 62 g ai/ha, scale 0 to 100 (0 no effect, 100 complete control)
[23] = 125 g ai/ha, scale 0 to 100 (0 no effect, 100 complete control)
[24] = 31 g ai/ha, scale 0 to 100, 0 no effect, 100 complete control
[25] = 250 g ai/ha, visual, scale 0 no effect to 100 complete control
[26] = Preemergence, 16 g ai/ha, scale 0 to 100, 0 no effect, 100 complete control
[27] = 16 g ai/ha, scale 0 to 100, 0 no effect, 100 complete control

Cc1nn(C)c(=O)c(-c2ccc(Br)c3ccccc23)c1O [Compound 75]
Plant response rating, Soybean (soybean (Glycine max); [14]): 70
Plant response rating, Soybean (soybean (Glycine max); [15]): 35
Plant response rating, Soybean (soybean (Glycine max); [16]): 70
Plant response rating, Soybean (soybean (Glycine max); [17]): 40
Plant response rating, Soybean (soybean (Glycine max); [18]): 75
Plant response rating, Soybean (soybean (Glycine max); [19]): 70
Plant response rating, Soybean (soybean (Glycine max); [20]): 0
Plant response rating, Soybean (soybean (Glycine max); [21]): 70
Plant response rating, Arrowleaf Sida [1, 14]: 70
Plant response rating, Arrowleaf Sida [1, 15]: 75
Plant response rating, Arrowleaf Sida [1, 16]: 80
Plant response rating, Arrowleaf Sida [1, 17]: 90
Plant response rating, Arrowleaf Sida [1, 18]: 80
Plant response rating, Arrowleaf Sida [1, 19]: 70
Plant response rating, Arrowleaf Sida [1, 20]: 50
Plant response rating, Arrowleaf Sida [1, 21]: 98
Plant response rating, Morningglory [2, 22]: 30
Plant response rating, Morningglory [2, 23]: 60
Plant response rating, Morningglory [2, 24]: 0
Plant response rating, Morningglory [2, 25]: 100
Plant response rating, Dayflower, VA [3, 14]: 50
Plant response rating, Dayflower, VA [3, 15]: 10
Plant response rating, Dayflower, VA [3, 16]: 50
Plant response rating, Dayflower, VA [3, 17]: 60
Plant response rating, Dayflower, VA [3, 18]: 65
Plant response rating, Dayflower, VA [3, 19]: 30
Plant response rating, Dayflower, VA [3, 20]: 10
Plant response rating, Dayflower, VA [3, 21]: 75
Plant response rating, Nutsedge, Yellow [4, 22]: 10
Plant response rating, Nutsedge, Yellow [4, 23]: 70
Plant response rating, Nutsedge, Yellow [4, 24]: 0
Plant response rating, Nutsedge, Yellow [4, 25]: 65
Plant response rating, Barnyardgrass [5, 14]: 30
Plant response rating, Barnyardgrass [5, 15]: 20
Plant response rating, Barnyardgrass [5, 16]: 25
Plant response rating, Barnyardgrass [5, 17]: 35
Plant response rating, Barnyardgrass [5, 18]: 30
Plant response rating, Barnyardgrass [5, 19]: 20
Plant response rating, Barnyardgrass [5, 20]: 20
Plant response rating, Barnyardgrass [5, 21]: 65
Plant response rating, Panicum, Fall [6, 14]: 40
Plant response rating, Panicum, Fall [6, 15]: 50
Plant response rating, Panicum, Fall [6, 16]: 50
Plant response rating, Panicum, Fall [6, 17]: 80
Plant response rating, Panicum, Fall [6, 18]: 60
Plant response rating, Panicum, Fall [6, 19]: 50
Plant response rating, Panicum, Fall [6, 20]: 10
Plant response rating, Panicum, Fall [6, 21]: 90
Plant response rating, Sandbur [7, 14]: 20
Plant response rating, Sandbur [7, 15]: 10
Plant response rating, Sandbur [7, 16]: 20
Plant response rating, Sandbur [7, 17]: 40
Plant response rating, Sandbur [7, 18]: 30
Plant response rating, Sandbur [7, 19]: 10
Plant response rating, Sandbur [7, 20]: 0
Plant response rating, Sandbur [7, 21]: 70
Plant response rating, Foxtail, Green [8, 22]: 0
Plant response rating, Foxtail, Green [8, 23]: 0
Plant response rating, Foxtail, Green [8, 24]: 0
Plant response rating, Foxtail, Green [8, 25]: 90
Plant response rating, Crabgrass, Brazil [9, 14]: 40
Plant response rating, Crabgrass, Brazil [9, 15]: 20
Plant response rating, Crabgrass, Brazil [9, 16]: 50
Plant response rating, Crabgrass, Brazil [9, 17]: 90
Plant response rating, Crabgrass, Brazil [9, 18]: 50
Plant response rating, Crabgrass, Brazil [9, 19]: 40
Plant response rating, Crabgrass, Brazil [9, 20]: 0
Plant response rating, Crabgrass, Brazil [9, 21]: 90
Plant response rating, Horseweed [10, 14]: 50
Plant response rating, Horseweed [10, 16]: 60
Plant response rating, Horseweed [10, 18]: 50
Plant response rating, Horseweed [10, 19]: 40
Plant response rating, Ryegrass, Italian [11, 14]: 80
Plant response rating, Ryegrass, Italian [11, 15]: 100
Plant response rating, Ryegrass, Italian [11, 16]: 85
Plant response rating, Ryegrass, Italian [11, 17]: 100
Plant response rating, Ryegrass, Italian [11, 18]: 90
Plant response rating, Ryegrass, Italian [11, 19]: 75
Plant response rating, Ryegrass, Italian [11, 20]: 100
Plant response rating, Ryegrass, Italian [11, 21]: 100
Plant response rating, Ragweed [12, 14]: 70
Plant response rating, Ragweed [12, 15]: 65
Plant response rating, Ragweed [12, 16]: 60
Plant response rating, Ragweed [12, 17]: 80
Plant response rating, Ragweed [12, 18]: 90
Plant response rating, Ragweed [12, 19]: 55
Plant response rating, Ragweed [12, 20]: 35
Plant response rating, Ragweed [12, 21]: 100
Plant response rating, Corn (corn (Zea mays); [14]): 0
Plant response rating, Corn (corn (Zea mays); [15]): 0
Plant response rating, Corn (corn (Zea mays); [16]): 0
Plant response rating, Corn (corn (Zea mays); [17]): 0
Plant response rating, Corn (corn (Zea mays); [18]): 0
Plant response rating, Corn (corn (Zea mays); [19]): 0
Plant response rating, Corn (corn (Zea mays); [20]): 0
Plant response rating, Corn (corn (Zea mays); [21]): 35
Plant response rating, Goosegrass [13, 22]: 0
Plant response rating, Goosegrass [13, 23]: 0
Plant response rating, Goosegrass [13, 24]: 0
Plant response rating, Goosegrass [13, 25]: 5

COC(=O)Oc1c(C)nn(C)c(=O)c1-c1c(C)sc2ccc(C)cc12 [Compound 80]
Plant response rating, Soybean (soybean (Glycine max); [15]): 0
Plant response rating, Soybean (soybean (Glycine max); [17]): 0
Plant response rating, Soybean (soybean (Glycine max); [26]): 0
Plant response rating, Soybean (soybean (Glycine max); [20]): 0
Plant response rating, Arrowleaf Sida [1, 15]: 35
Plant response rating, Arrowleaf Sida [1, 17]: 25
Plant response rating, Arrowleaf Sida [1, 26]: 0
Plant response rating, Arrowleaf Sida [1, 20]: 0
Plant response rating, Morningglory [2, 22]: 70
Plant response rating, Morningglory [2, 23]: 75
Plant response rating, Morningglory [2, 27]: 0
Plant response rating, Morningglory [2, 24]: 65
Plant response rating, Dayflower, VA [3, 15]: 0
Plant response rating, Dayflower, VA [3, 17]: 10
Plant response rating, Dayflower, VA [3, 26]: 0
Plant response rating, Dayflower, VA [3, 20]: 0
Plant response rating, Nutsedge, Yellow [4, 22]: 40
Plant response rating, Nutsedge, Yellow [4, 23]: 35
Plant response rating, Nutsedge, Yellow [4, 27]: 5
Plant response rating, Nutsedge, Yellow [4, 24]: 10
Plant response rating, Barnyardgrass [5, 15]: 20
Plant response rating, Barnyardgrass [5, 17]: 20
Plant response rating, Barnyardgrass [5, 26]: 0
Plant response rating, Barnyardgrass [5, 20]: 0
Plant response rating, Panicum, Fall [6, 15]: 95
Plant response rating, Panicum, Fall [6, 17]: 98
Plant response rating, Panicum, Fall [6, 26]: 80
Plant response rating, Panicum, Fall [6, 20]: 90
Plant response rating, Sandbur [7, 15]: 70
Plant response rating, Sandbur [7, 17]: 75
Plant response rating, Sandbur [7, 26]: 0
Plant response rating, Sandbur [7, 20]: 65
Plant response rating, Foxtail, Green [8, 22]: 50
Plant response rating, Foxtail, Green [8, 23]: 65
Plant response rating, Foxtail, Green [8, 27]: 0
Plant response rating, Foxtail, Green [8, 24]: 15
Plant response rating, Crabgrass, Brazil [9, 15]: 90
Plant response rating, Crabgrass, Brazil [9, 17]: 100
Plant response rating, Crabgrass, Brazil [9, 26]: 65
Plant response rating, Crabgrass, Brazil [9, 20]: 75
Plant response rating, Horseweed [10, 15]: 100
Plant response rating, Horseweed [10, 17]: 100
Plant response rating, Horseweed [10, 26]: 100
Plant response rating, Horseweed [10, 20]: 100
Plant response rating, Ryegrass, Italian [11, 15]: 98
Plant response rating, Ryegrass, Italian [11, 17]: 98
Plant response rating, Ryegrass, Italian [11, 26]: 50
Plant response rating, Ryegrass, Italian [11, 20]: 70
Plant response rating, Ragweed [12, 15]: 100
Plant response rating, Ragweed [12, 17]: 100
Plant response rating, Ragweed [12, 26]: 70
Plant response rating, Ragweed [12, 20]: 70
Plant response rating, Corn (corn (Zea mays); [15]): 0
Plant response rating, Corn (corn (Zea mays); [17]): 0
Plant response rating, Corn (corn (Zea mays); [26]): 0
Plant response rating, Corn (corn (Zea mays); [20]): 0
Plant response rating, Goosegrass [13, 22]: 30
Plant response rating, Goosegrass [13, 23]: 20
Plant response rating, Goosegrass [13, 27]: 0
Plant response rating, Goosegrass [13, 24]: 0
